Series [1] is described as follows: Aqueous dispersibility. Format: physicochemical. As to conditions: USP-purified water; no heat, detergents, co-solvents. The text has this:
In some embodiments, highly water-dispersible C40 carotenoid derivatives may include natural source RRR-lutein (β,ε-carotene-3,3′-diol) derivatives. Derivatives may be synthesized by esterification with inorganic phosphate and succinic acid, respectively, and subsequently converted to the sodium salts. Deep orange, evenly colored aqueous suspensions were obtained after addition of these derivatives to USP-purified water. […] Aqueous suspensions may be obtained without the addition of heat, detergents, co-solvents, or other additives.
Disodium disuccinate astaxanthin (DDA; see FIG. 1B) was synthesized from commercially available crystalline astaxanthin (Buckton Scott, India) as previously described in Frey, et al. (“The efficient synthesis of disodium disuccinate astaxanthin (Cardax).” Org Process Res Dev 8: 796-801, 2004.). The final product purity was 97% (as area under the curve) by HPLC analysis. DDA was dissolved directly in sterile-filtered deionized water. The maximum aqueous dispersibility of DDA is approximately 10 mM, or 8.64 mg/ml. Vehicle consisted of isotonic sterile 0.9% NaCl solution.

Series [2] in a line: Dog PK of astaxanthin derivatives (CXPK07402, 07404, 07405, 07406). How it is done: In another experiment, ADL was administered to non-naïve beagle dogs orally (as an aqueous suspension containing 0.5% carboxymethylcellulose) and intravenously as an aqueous solution. Oral doses that included 10 mg/kg of the carotenoid derivative, 100 mg/kg of the carotenoid derivative, and 500 mg/kg of the carotenoid derivative were administered to each dog. The intravenous dosage was 5 mg/kg. (See FIG. 20, PK Study #CXPK07402). For each carotenoid derivative given to the dogs in this example, the amount of all astaxanthin isomers, the amount of trans astaxanthin isomers, and the amount of cis astaxanthin isomers in the plasma was determined at predefined time intervals for 3 days (72 hours).
In another experiment, ADL was administered to naïve beagle dogs orally (as an aqueous suspension containing 0.5% carboxymethylcellulose) twice a day for six days. Each oral dose included 75 mg/kg of the carotenoid derivative. (See FIG. 20, PK Study #CXPK07404). For each carotenoid derivative given to the dogs in this example, the amount of all astaxanthin isomers, the amount of trans astaxanthin isomers, and the amount of cis astaxanthin isomers in the plasma was determined at predefined time intervals for 6 days.
In another experiment, all-trans 3S,3′ S-astaxanthin diester di-beta-alanine dihydrochloride salt (hereinafter “ADA”); ADG; ADL; ADSa; and ADS were administered orally to separate non-naïve dogs as a aqueous suspension containing 0.5% carboxymethylcellulose. A single dose that included 20 mg/kg of the carotenoid derivative was administered to each dog. (See FIG. 20, PK Study #CXPK07405). For each carotenoid derivative given to the dogs in this example, the amount of all astaxanthin isomers was determined at predefined time intervals for 3 days (72 hours).
In another experiment, ADG or ADSa was administered to non-naïve beagle dogs orally (as an aqueous suspension containing 0.5% carboxymethylcellulose). Oral doses included either 50 mg/kg of the carotenoid derivative or 100 mg/kg of the carotenoid derivative. (See FIG. 20, PK Study #CXPK07406). For each carotenoid derivative given to the dogs in this example, the amount of all astaxanthin isomers, the amount of trans astaxanthin isomers, and the amount of cis astaxanthin isomers in the plasma was determined at predefined time intervals for 3 days (72 hours).

The conditions of series [3]: rat, in vivo. On the procedure: In a another experiment, all-trans 3S,3′S-astaxanthin diester diglycinate dihydrochloride salt (hereinafter “ADG”); all-trans 3S,3′S-astaxanthin diester disarcosinate dihydrochloride salt (hereinafter “ADSa”); and ADL were administered orally to separate rats as a aqueous suspension containing 0.5% carboxymethylcellulose. A single dose that included 40 mg/kg of the carotenoid derivative was administered to each rat. (See FIG. 20, PK Study #CXPK07202). For each carotenoid derivative given to the rats in this example, the amount of all astaxanthin isomers, the amount of trans astaxanthin isomers, and the amount of cis astaxanthin isomers in the plasma was determined at predefined time intervals for 3 days (72 hours).
In another experiment, ADG; ADSa; and ADL were administered to separate rats intravenously as an aqueous solution. A single dose that included 5 mg/kg of the carotenoid derivative was administered to each rat. (See FIG. 20, PK Study #CXPK07202). For each carotenoid derivative given to the rats in this example, the amount of all astaxanthin isomers, the amount of trans astaxanthin isomers, and the amount of cis astaxanthin isomers in the plasma was determined at predefined time intervals for 3 days (72 hours).

On the set-up of series [4]: species or system rats. Conditions: in vivo, po, 500 mg/kg. How it is done: In one experiment, astaxanthin; all-trans 3S,3'S-astaxanthin diester disuccinate disodium salt (hereinafter “ADS”); and all-trans 3S,3'S-astaxanthin diester […] tetrahydrochloride salt (hereinafter “ADL”) were administered orally to separate rats as a lipid suspension. A single dose that included 500 mg/kg of the carotenoid/carotenoid derivative was administered to each rat. (See FIG. 20, PK Study #CXPK07201). Plasma from each of the rats was collected 4 hours after ingestion and 8 hours after ingestion and all samples were analyzed by high performance liquid chromatography (“HPLC”). HPLC analysis was used to detect the presence of free underivatized carotenoid (e.g., in this example, astaxanthin) in the plasma. HPLC chromatograms were collected for each plasma sample taken.

The subject of series [5] is vascular platelets. In words: Platelet-derived nitric oxide (NO) release after IP3 stimulation, NO nanosensor. Type of series: cell-based, Wistar-Kyoto (WKY) rats. How it is done: Wistar-Kyoto (WKY) rats were anaesthetized and blood was collected directly from the heart using a 10 mL syringe that contained 3.8% sodium citrate (9:1, v v^−1). […] The platelet rich plasma (PRP) was then removed by aspiration. […] The number of platelets was counted and adjusted to 3.5×10^8 per mL with Tyrode-HEPES buffer. The platelets were incubated in an aggregometer with a NO nanosensor (working electrode) placed in the platelet suspension. […] All measurements of NO release were conducted in Hank's balanced salt solution (HBSS) at 37° C. The sensor operated with a three-electrode system: nanosensor (working electrode), saturated calomel electrode (reference electrode), and platinum wire (counter electrode, 0.5 mm diameter). The three electrodes were connected to a potentiostat/galvanostat PAR273. The baseline was stabilized after ˜20 s. With a nanoinjector, the test compounds were injected onto the surface of the cells following solubilization in buffer. In experiments with multiple compounds, the compounds were injected simultaneously. […] Data were acquired with the use of custom software. Amperograms (current vs. time curves) were recorded with a Guniry FAS1 Femtostat (Warminster, Pa.). The nanosensor for NO was calibrated using saturated solution (concentration 1.82 mM verified with the coulometric method). […] The data were presented as mean±S.D. for each of the triplicate measurements. The data (calculation and plotting) were transferred to Microcal Origin Software (OriginLab Corp., Northampton, Mass.). […] The NO concentration was calculated using current responses obtained from standard NO solution (prepared from […] stock solution, saturated aqueous NO solution).

The test system of series [6] is human umbilical vein endothelial cells (HUVEC). In words: Calcium ionophore (CaI)-stimulated total nitric oxide release from HUVEC. Conditions: 3S,3′S-AST 5.0 μM, clopidogrel 1.0 μM, alone or in combination; FIG. 5. Format: cell-based. On the procedure:
(§1) Human umbilical vein endothelial cells (HUVECs) were isolated into primary cultures from white female donors by Clonetics (San Diego, Calif.), essentially as described (Mason et al. 2005). All donors were reported to be healthy and none had pregnancy or prenatal complications. All measurements were recorded in vitro using a sensitive porphyrinic probe, also as previously described. HUVEC cells were grown in Ham's F12K medium with 2 mM L-glutamine adjusted to contain 1.5 g/L sodium bicarbonate and supplemented with 0.1 mg/mL heparin and 0.03-0.05 mg/mL endothelial cell growth supplement (ECGS) plus 10% fetal bovine serum. The HUVEC cells were kept in an atmosphere of elevated CO2 concentration (5%).
All measurements of NO release were conducted in Hank's balanced salt solution (HBSS) at 37° C. The sensor operated with a three-electrode system: nanosensor (working electrode), saturated calomel electrode (reference electrode), and platinum wire (counter electrode, 0.5 mm diameter). The three electrodes were connected to a potentiostat/galvanostat PAR273. […] The current (amps) proportional to the NO concentration was measured with the sensor, which operated in amperometric mode at a constant potential of 0.63 V. Data were acquired with the use of custom software. Amperograms (current vs. time curves) were recorded with a Guniry FAS1 Femtostat (Warminster, Pa.).

Series [7] has the same test system. In words: CaI-stimulated NO/OONO- release ratio from HUVEC. Type of series: cell-based. Conditions: 3S,3′S-AST 5.0 μM, clopidogrel 1.0 μM, alone or in combination; FIG. 7. How it is done:
as §1

Series [8] shares this test system. In words: Calcium ionophore (CaI)-stimulated total peroxynitrite release from HUVEC. Type of series: cell-based. Conditions: 3S,3′S-AST 5.0 μM, clopidogrel 1.0 μM, alone or in combination; FIG. 6. On the procedure:
as §1

Where two headings read alike, the source gives them in different places.

In series [1], `CC(C=CC=C(C)C=CC1=C(C)CC(OC(=O)CCC(=O)[O-])CC1(C)C)=CC=CC=C(C)C=CC=C(C)C=CC1C(C)=CC(OC(=O)CCC(=O)[O-])CC1(C)C.[Na+].[Na+]` (centres unmarked) showed an aqueous dispersibility of 2.85 mg/mL.

For the compound `CC1=C(/C=C/C(C)=C/C=C/C(C)=C/C=C/C=C(C)/C=C/C=C(C)/C=C/C2=C(C)C(=O)[C@@H](OC(=O)CN)CC2(C)C)C(C)(C)C[C@H](OC(=O)CN)C1=O.Cl.Cl` (relative stereo) [ADG, all-trans 3S,3′S-astaxanthin diester diglycinate dihydrochloride salt], the “absorption and metabolism to astaxanthin in plasma” value (“absorption and metabolism” for short) was “absorbed by the dogs and metabolized” in series [2] (dog, in vivo, po, 20 mg/kg); “absorbed by the rats and metabolized” in series [3] (iv, 5 mg/kg); “absorbed by the rats and metabolized” in series [3] (po, 40 mg/kg).

Consider `CC1=C(/C=C/C(C)=C/C=C/C(C)=C/C=C/C=C(C)/C=C/C=C(C)/C=C/C2=C(C)C(=O)[C@@H](OC(=O)[C@@H](N)CCCCN)CC2(C)C)C(C)(C)C[C@H](OC(=O)[C@@H](N)CCCCN)C1=O.Cl.Cl.Cl.Cl` (relative stereo) [ADL, all-trans 3S,3′S-astaxanthin diester dilysinate tetrahydrochloride salt], for which the “absorption and metabolism” value is “absorbed by the dogs and metabolized” in series [2] (dog, in vivo, po, 20 mg/kg); “absorbed by the dogs and metabolized” in series [2] (dog, in vivo, po, 75 mg/kg); “absorbed by the rats and metabolized” in series [3] (iv, 5 mg/kg); “absorbed by the rats and metabolized” in series [3] (po, 40 mg/kg). Also, the “free astaxanthin in rat plasma” value in series [4] was “significant amount”.

For the compound `CC1=C(/C=C/C(C)=C/C=C/C(C)=C/C=C/C=C(C)/C=C/C=C(C)/C=C/C2=C(C)C(=O)[C@@H](OC(=O)CCC(=O)[O-])CC2(C)C)C(C)(C)C[C@H](OC(=O)CCC(=O)[O-])C1=O.[Na+].[Na+]` (relative stereo) [ADS, all-trans 3S,3′S-astaxanthin diester disuccinate disodium salt], in series [2] (dog, in vivo, po, 20 mg/kg), the “absorption and metabolism” value was “absorbed by the dogs and metabolized”. Also, the “free astaxanthin in rat plasma” value in series [4] was “significant amount”.

On to `CC(C=CC=C(C)C=CC1=C(C)C(=O)C(OC(=O)CCN)CC1(C)C)=CC=CC=C(C)C=CC=C(C)C=CC1=C(C)C(=O)C(OC(=O)CCN)CC1(C)C.Cl.Cl` (stereo not drawn) [ADA, all-trans 3S,3′ S-astaxanthin diester di-beta-alanine dihydrochloride salt], for which the “absorption and metabolism” value in series [2] (non-naïve dogs, single oral 20 mg/kg) was “absorbed by the dogs and metabolized”.

With `COC(=O)[C@H](c1ccccc1Cl)N1CCc2sccc2C1` [clopidogrel, reference compound], the “total NO release from vascular platelets” value in series [5] (IP3 stimulation, homochiral astaxanthin 5.0 μM, clopidogrel 1.0 μM, controls 6.6±0.3, mean±S.D.) was 10.2±0.4 molecules NO×10^6/platelet. In series [6], the “effect on CaI-stimulated total nitric oxide release from HUVEC” value is on record as “did not significantly change”. For the same compound, the “effect on CaI-stimulated NO/OONO− release ratio from HUVEC” value in series [7] was “did not significantly change”. Also, the “effect on CaI-stimulated total peroxynitrite (OONO−) release from HUVEC” value in series [8] is on record as “did not significantly change”.

For the compound `CCC(C)(C)C(=O)O[C@H]1C[C@@H](C)C=C2C=C[C@H](C)[C@H](CC[C@@H]3C[C@@H](O)CC(=O)O3)[C@H]21` [simvastatin, reference compound], in series [5] (1.0 μM, IP3 1.0 μM, FIG. 11), the “effect on platelet-derived NO release” value is recorded as “no effect”.

Values taken from patent publication US8063101B2, “Carotenoid analogs and derivatives for the prevention of platelet aggregation” (Cardax Pharmaceuticals, Inc., priority 2007, dated 2011).
